Data reported in patent US8591761B2, “Apparatus including hydrofluoroether with high temperature stability and uses thereof” (3M Innovative Properties Company, priority 2009, dated 2013).
Read-outs that look alike come from different tables or passages of the source.

Assays:
[1] = assay type: physicochemical; conditions: for stability of the HFE to temperature (conclusion from ketone concentration): heated at 150° C. for 8 days
Method: Stability testing was carried out by heating of the various samples in clean, PYREX glass round bottom flasks at the temperatures noted below.
The stability of H(CF2CF2)3CH2OCF2CFHCF3 was tested by placing a portion of the ether, prepared essentially as described in Example 1 and treated with both HF and potassium permanganate, (˜100 g) into a new PYREX glass flask containing a reflux condenser under nitrogen and heating to 150° C. for 36 days. Samples of the liquid were taken at 7, 14, 26 and 36 day time intervals and the composition was monitored by GC/MS for breakdown products of the parent molecule. […] The compositional analysis (GC/MS and GC-FID) verified this conclusion. After this heating period, the sample was then heated to 180° C. for an additional 14 days.
The stability of H(CF2CF2)3CH2OCF2CFHOCF3 was tested by placing a portion of the ether, prepared as described above, (75 g) into a flask containing a reflux condenser under nitrogen and heating while stirring magnetically to 175° C. for 15 days. Samples of the liquid were taken at 1, 2, 3, 4, 7, 8, 9, 11 and 15 day time intervals and analyzed by gas chromatography. In addition, the starting material and the material at the end of the heating period were analyzed by GC/MS for breakdown products of the parent molecule.
Stability testing in glass was carried out by placing about 100 g of the ether in a 500 ml, round bottom flask equipped with a water condenser and heated with magnetic stirring to 150° C. for seven days. Samples of the liquid were taken on days 1, 2, 3, 4, and 7 and analyzed by gas chromatography, HF gas probe, and pH paper. After one day, the pH had dropped from the initial value neutral value of 7 to 5 and remained at that level the remainder of the test.
50 grams of the hydrofluoroether was charged to a 50 mL round bottom flask. The material was heated at 150° C. for 8 days with samples taken at day 1, 2, 3, 6, and 8. The primary breakdown product from the parent molecule that was monitored was the ketone intermediate, C3F7OCF(CF3)CF2OCF(CF3)C(O)CF2CF3. This was monitored using GC-FID.
50 grams of the hydrofluoroether was charged to a 50 mL round bottom flask. The material was heated at 150° C. for 8 days with samples taken at day 1, 2, 5, 7, and 8. The primary breakdown product from the parent molecule that was monitored was the ketone intermediate, C3F7OCF(CF3)CF2OCF(CF3)C(O)CF2CF3. This was monitored using GC-FID.
50 g of the hydrofluoroether was charged to a 50 mL round bottom flask. The material was heated at 150° C. for 7 days with samples taken at days 3, 5, and 7 days. The primary breakdown products from the parent molecule that were monitored was vinyl ether, C4F9OCF(CF3)CF2OCF═CF2 and the hydride C4F9OCF(CF3)CF2OCFHCF3. These were monitored using GC-FID.
50 g of the hydrofluoroether was charged to a 50 mL round bottom flask. […] The primary breakdown products from the parent molecule that were monitored was vinyl ether, C3F7(OCF(CF3)CF2)2OCF═CF2 and the hydride C3F7(OCF(CF3)CF2)2OCF═HCF3. These were monitored using GC-FID.

[2] = assay type: physicochemical; conditions: for appearance of the metal parts of the chiller: over the lifetime of the test; for changes in the composition of the circulating fluid (NMR, GC/MS): circulated through closed stainless steel loop at 150° C. for 28 days; for breakdown product diketone (CF3)2CFCOC2F4COCF(CF3)2: other studies
Method: The long term stability of HC6F12CH2OCF2CFHCF3 in a commercial chiller unit was tested. The chiller used for this test was a Lydall Affinity Chiller, model PWL-003 KBE48CBC3 with an operating range of 10° C. to 200° C. HC6F12CH2OCF2CFHCF3 was circulated through a closed stainless steel loop at 150° C. for 28 days. During this time the chiller operated continuously except for short periods for taking samples in which the fluid was cooled to room temperature before the sample was removed. […] The composition of the circulating fluid was analyzed by GC/MS periodically (on days 1, 3, 6, 13, 20, and 28) to determine whether any changes in the fluid had occurred. Fluorine NMR analysis of the fluid before the testing and after completion of the testing was also carried out. […] A very small level of HF (1.4 ppm) was observed initially and this value decreased to 0 ppm by day 13. HF was also monitored in the liquid phase by titration and never exceeded a value of 0.52 ppm.
A comparative hydrofluoroether 2,3,3,4,4-pentafluoro-2,5-bis(perfluoropropan-2-yl)-5-ethoxytetrahydrofuran (II) was also tested multiple times in this same system under the same conditions. The composition of this fluid was monitored periodically over about thirty days for composition changes from the input material. […] HF was also monitored in the liquid phase by titration and ranged between 0.34 and 0.36 ppm. […] Depending on the study this corrosion varied between quite marked with the formation of black or greenish deposits to less obvious but still showing significant signs of a corrosive agent derived from the fluid. This corrosion as well as the formation of the diketone breakdown product rendered this material unacceptable for use in such a high temperature heat transfer application.
Furthermore, the heat transfer fluid that includes the hydrofluoroether compound from Example 1 was tested for long term stability in a commercial chiller unit as described in Example 3. […] As a comparison, the compound from Comparative Example 1 was put through the same test.

## CCOC(F)(F)C(F)(OC(F)(F)C(F)(OC(F)(F)C(F)(F)C(F)(F)C(F)(F)F)C(F)(F)F)C(F)(F)F (centres unmarked) [Comparative Example 4, 1-(1-{[1-(ethoxydifluoromethyl)-1,2,2,2-tetrafluoroethoxy]-difluoromethyl}-1,2,2,2-tetrafluoroethoxy)-1,1,2,2,3,3,4,4,4-nonafluorobutane]
[1]; 150° C., Day 0
  % Breakdown products (sum of vinyl ether and hydride, GC-FID): 0%
[1]; 150° C., Day 3
  % Breakdown products (sum of vinyl ether and hydride, GC-FID): 0.18%
[1]; 150° C., Day 5
  % Breakdown products (sum of vinyl ether and hydride, GC-FID): 0.32%
[1]; 150° C., Day 7
  % Breakdown products (sum of vinyl ether and hydride, GC-FID): 0.49%

## COC(F)(C(F)(F)C(F)(F)F)C(F)(OC(F)(F)C(F)(OC(F)(F)C(F)(F)C(F)(F)F)C(F)(F)F)C(F)(F)F (centres unmarked) [Comparative Example 3, 3-methoxy-1,1,1,2,2,3,4,5,5,5-decafluoro-4-(1,1,2,3,3,3-hexafluoro-2-heptafluoropropyloxypropoxy)pentane]
[1]; 150° C., Day 1
  ppm Ketone (breakdown product C3F7OCF(CF3)CF2OCF(CF3)C(O)CF2CF3, GC-FID): 50 ppm
[1]; 150° C., Day 2
  ppm Ketone (breakdown product C3F7OCF(CF3)CF2OCF(CF3)C(O)CF2CF3, GC-FID): 50 ppm
[1]; 150° C., Day 5
  ppm Ketone (breakdown product C3F7OCF(CF3)CF2OCF(CF3)C(O)CF2CF3, GC-FID): 50 ppm
[1]; 150° C., Day 7
  ppm Ketone (breakdown product C3F7OCF(CF3)CF2OCF(CF3)C(O)CF2CF3, GC-FID): 50 ppm
[1]
  stability of the HFE to temperature (conclusion from ketone concentration): not exceptionally stable

## FC(C(F)(F)F)C(F)(F)OCC(F)(F)C(F)(F)C(F)(F)C(F)(F)C(F)(F)C(F)F (centres unmarked) [Example 1, 7-(1,1,2,3,3,3-hexafluoropropoxy)-1,1,2,2,3,3,4,4,5,5,6,6-dodecafluoroheptane]
[2]; 150° C., by day 13
  HF level in head space of the chiller: 0 ppm
[2]; 150° C., entire 28 day heating period
  increase in HF levels in head space of the chiller (PortaSens HF gas detector probe): detected no increase in the HF levels
[2]; 150° C., observed initially
  HF level in head space of the chiller: 1.4 ppm
[2]; 150° C., over the chiller test (about 28-30 days)
  HF in the liquid phase by titration: ≤ 0.52 ppm
[2]; 150° C.
  appearance of the metal parts of the chiller: essentially unchanged
[2]
  changes in the composition of the circulating fluid (NMR, GC/MS): no significant deterioration
[2]; listed as HC6F12CH2OCF2CFHCF3
  changes in the composition of the circulating fluid (NMR, GC/MS): No changes in the composition of the fluid were observed
[1]; PYREX glass flask, reflux condenser, under nitrogen, 150° C. for 36 days
  changes in product purity / breakdown products of the parent molecule (GC/MS, GC-FID): No changes in product purity were observed
[1]; after 36 days at 150° C., heated to 180° C. for an additional 14 days
  breakdown products: No breakdown products were observed
[1]; entire 50 day heating period (150° C. 36 days, 180° C. 14 days)
  HF in head space of the flask (PortaSens HF gas detector probe): detected no HF

## CCOC(F)(F)C(F)(OC(F)(F)C(F)(OC(F)(F)C(F)(OC(F)(F)C(F)(F)C(F)(F)F)C(F)(F)F)C(F)(F)F)C(F)(F)F (centres unmarked) [Comparative Example 5, 1-{1-[(1-{[1-(ethoxydifluoromethyl)-1,2,2,2-tetrafluoroethoxy]difluoro-methyl}-1,2,2,2-tetrafluoroethoxy)difluoromethyl]-1,2,2,2-tetrafluoroethoxy}-1,1,2,2,3,3,3-heptafluoro-propane]
[1]; 150° C., Day 0
  % Breakdown products (sum of vinyl ether and hydride, GC-FID): 0%
[1]; 150° C., Day 2.75
  % Breakdown products (sum of vinyl ether and hydride, GC-FID): 0.18%
[1]; 150° C., Day 4.75
  % Breakdown products (sum of vinyl ether and hydride, GC-FID): 0.38%
[1]; 150° C., Day 6.75
  % Breakdown products (sum of vinyl ether and hydride, GC-FID): 0.45%
[1]; 150° C., Day 9.75
  % Breakdown products (sum of vinyl ether and hydride, GC-FID): 0.55%
[1]; 150° C., Day 18.75
  % Breakdown products (sum of vinyl ether and hydride, GC-FID): 1.59%

## FC(OC(F)(F)F)C(F)(F)OCC(F)(F)C(F)(F)C(F)(F)C(F)(F)C(F)(F)C(F)F (centres unmarked) [Example 2, 1,1,2,2,3,3,4,4,5,5,6,6-dodecafluoro-7-(1,1,2-trifluoro-2-trifluoromethoxyethoxy)heptane]
[1]; flask, reflux condenser, under nitrogen, 175° C. for 15 days
  changes in product purity (gas chromatography, GC/MS): No changes in product purity were observed

## CCOC(F)(C(F)(F)C(F)(F)F)C(F)(OC(F)(F)C(F)(OC(F)(F)C(F)(F)C(F)(F)F)C(F)(F)F)C(F)(F)F (centres unmarked) [Comparative Example 2, 3-ethoxy-1,1,1,2,2,3,4,5,5,5-decafluoro-4-(1,1,2,3,3,3-hexafluoro-2-heptafluoropropyloxypropoxy)pentane]
[1]; 150° C., Day 1
  ppm Ketone (breakdown product C3F7OCF(CF3)CF2OCF(CF3)C(O)CF2CF3, GC-FID): 140 ppm
[1]; 150° C., Day 2
  ppm Ketone (breakdown product C3F7OCF(CF3)CF2OCF(CF3)C(O)CF2CF3, GC-FID): 300 ppm
[1]; 150° C., Day 3
  ppm Ketone (breakdown product C3F7OCF(CF3)CF2OCF(CF3)C(O)CF2CF3, GC-FID): 503 ppm
[1]; 150° C., Day 6
  ppm Ketone (breakdown product C3F7OCF(CF3)CF2OCF(CF3)C(O)CF2CF3, GC-FID): 1000 ppm
[1]; 150° C., Day 8
  ppm Ketone (breakdown product C3F7OCF(CF3)CF2OCF(CF3)C(O)CF2CF3, GC-FID): 1200 ppm
[1]
  stability of the HFE to temperature (conclusion from ketone concentration): not exceptionally stable

## CCOC1(C(F)(C(F)(F)F)C(F)(F)F)OC(F)(C(F)(C(F)(F)F)C(F)(F)F)C(F)(F)C1(F)F (centres unmarked) [Comparative Example 1, 2,3,3,4,4-pentafluoro-2,5-bis(perfluoropropan-2-yl)-5-ethoxytetrahydrofuran]
[2]
  stability of the parent molecule (conclusion from diketone formation): not stable
[2]; 150° C., at 7 days
  breakdown product diketone (CF3)2CFCOC2F4COCF(CF3)2: 472 ppm
[2]; 150° C., at 28 days
  breakdown product diketone (CF3)2CFCOC2F4COCF(CF3)2: 195 ppm
[2]; 150° C.
  appearance of the metal parts of the chiller: considerable corrosion
[2]; 150° C., listed as II
  appearance of the metal parts of the chiller: noticeable corrosion
[1]; 150° C., Day 0
  ppm F (HF levels in the liquid phase): <0.1 ppm
[1]; 150° C., Day 1
  ppm F (HF levels in the liquid phase): 1.0 ppm
[1]; 150° C., Day 2
  ppm F (HF levels in the liquid phase): 1.8 ppm
[1]; 150° C., Day 3
  ppm F (HF levels in the liquid phase): 2.6 ppm
[1]; 150° C., Day 4
  ppm F (HF levels in the liquid phase): 3.2 ppm
[1]; 150° C., Day 7
  ppm F (HF levels in the liquid phase): 3.9 ppm
[1]; 150° C., after one day, remained at that level the remainder of the test
  pH (pH paper): 5
[1]; 150° C., day 3, maximum level which the probe could detect, did not change for remainder of test
  HF level in the headspace (PortaSens probe): 27 ppm
[1]; 150° C., day 7
  decomposition product diketone (CF3)2CFCOC2F4COCF(CF3)2 level: 1648 ppm
[1]; initial value, before heating
  pH (pH paper): 7
